This note sets out measurements from patent publication US20240239861A1, “GLUCAGON-RECEPTOR SELECTIVE POLYPEPTIDES AND METHODS OF USE THEREOF” (i2O Therapeutics, Inc., priority 2016, published 2024).

Where a SMILES comes first, the peptide text is derived from it. [ ]: non-standard residue; d: D form. Aib = CC(C)(N)C(=O)O A value given as a limit tells only on which side of the number the result lay.

One assay addresses human GLP-1R (Homo sapiens, UniProt P43220). Kind of assay: Peptide-receptor mediated cAMP accumulation (LANCE Ultra cAMP) in CHO-K1 cells transfected with human GLP-1R. The format is cell-based. The conditions noted are these: hGLP1 pEC50 (cAMP mean (n = 3): 11 point curve starting at 1 nM, Table 3).
The target in another assay is human GCGR (Homo sapiens, UniProt P47871). Kind of assay: Peptide-receptor mediated cAMP accumulation (LANCE Ultra cAMP) in CHO-K1 cells transfected with human GCGR. The format is cell-based. As to conditions: Table 3.
Chain of human GCGR (P47871 26-477): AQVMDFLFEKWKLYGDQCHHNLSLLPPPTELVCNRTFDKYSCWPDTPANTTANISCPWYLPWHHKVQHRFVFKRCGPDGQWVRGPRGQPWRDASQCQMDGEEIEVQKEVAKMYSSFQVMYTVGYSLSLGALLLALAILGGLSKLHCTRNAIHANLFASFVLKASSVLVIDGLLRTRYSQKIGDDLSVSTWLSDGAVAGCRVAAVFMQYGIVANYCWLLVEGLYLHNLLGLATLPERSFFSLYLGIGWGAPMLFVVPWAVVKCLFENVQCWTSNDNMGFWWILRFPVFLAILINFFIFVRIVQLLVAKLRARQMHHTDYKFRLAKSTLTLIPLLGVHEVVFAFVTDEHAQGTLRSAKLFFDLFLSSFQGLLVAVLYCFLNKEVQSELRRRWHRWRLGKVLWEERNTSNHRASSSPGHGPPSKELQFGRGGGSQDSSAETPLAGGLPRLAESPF

Chain of human GLP-1R (P43220 24-463): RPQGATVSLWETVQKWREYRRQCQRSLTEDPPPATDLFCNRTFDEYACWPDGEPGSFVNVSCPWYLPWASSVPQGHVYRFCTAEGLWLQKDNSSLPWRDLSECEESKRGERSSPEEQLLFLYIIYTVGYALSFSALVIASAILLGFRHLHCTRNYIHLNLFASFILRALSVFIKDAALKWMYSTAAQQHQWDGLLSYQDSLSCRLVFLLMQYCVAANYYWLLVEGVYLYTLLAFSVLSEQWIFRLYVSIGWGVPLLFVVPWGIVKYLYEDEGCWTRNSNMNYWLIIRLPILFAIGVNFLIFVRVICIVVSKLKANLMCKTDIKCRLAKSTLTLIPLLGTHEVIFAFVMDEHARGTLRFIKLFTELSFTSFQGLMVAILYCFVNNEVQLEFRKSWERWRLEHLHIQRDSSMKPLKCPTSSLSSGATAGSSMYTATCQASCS

Broadly, the EC50 is the concentration giving half of the maximal effect. For `CC(C)C[C@H](NC(=O)[C@H](Cc1ccc(O)cc1)NC(=O)[C@H](CCCCN)NC(=O)[C@H](CO)NC(=O)[C@H](Cc1ccc(O)cc1)NC(=O)[C@H](CC(=O)O)NC(=O)[C@H](CO)NC(=O)[C@@H](NC(=O)[C@H](Cc1ccccc1)NC(=O)[C@@H](NC(=O)CNC(=O)[C@H](Cc1c[nH]cn1)NC(=O)[C@H](CO)NC(=O)[C@@H](N)Cc1ccc(O)cc1)[C@@H](C)O)[C@@H](C)O)C(=O)N[C@@H](CC(=O)O)C(=O)NC(C)(C)C(=O)N[C@@H](CCCCN)C(=O)N[C@@H](CCCNC(=N)N)C(=O)N[C@@H](C)C(=O)N[C@@H](CCC(N)=O)C(=O)N[C@@H](CCC(=O)O)C(=O)N[C@@H](Cc1ccccc1)C(=O)N[C@H](C(=O)NC(C)(C)C(=O)N[C@@H](Cc1c[nH]c2ccccc12)C(=O)N[C@@H](CC(C)C)C(=O)N[C@@H](CCC(=O)O)C(=O)N[C@@H](CC(=O)O)C(=O)N[C@@H](CCC(=O)O)C(=O)N[C@@H](CCC(=O)O)C(=O)N1CCC[C@H]1C(=O)N[C@@H](CO)C(=O)N[C@@H](CO)C(=O)NCC(=O)N[C@@H](C)C(=O)N1CCC[C@H]1C(=O)N1CCC[C@H]1C(=O)N1CCC[C@H]1C(=O)N[C@@H](CO)C(=O)O)C(C)C` [Compound A10] (H-YSHGTFTSDYSKYLD[Aib]KRAQEFV[Aib]WLEDEEPSSGAPPPS-OH; N-terminus assumed), the EC50 at human GLP-1R is above 1000 pM; at human GCGR, 5.01 pM.
The matching figures for `CC(C)C[C@H](NC(=O)[C@H](Cc1ccc(O)cc1)NC(=O)[C@H](CCCCN)NC(=O)[C@H](CO)NC(=O)[C@H](Cc1ccc(O)cc1)NC(=O)[C@H](CC(=O)O)NC(=O)[C@H](CO)NC(=O)[C@@H](NC(=O)[C@H](Cc1ccccc1)NC(=O)[C@@H](NC(=O)CNC(=O)[C@H](Cc1c[nH]cn1)NC(=O)[C@H](CO)NC(=O)[C@@H](N)Cc1ccc(O)cc1)[C@@H](C)O)[C@@H](C)O)C(=O)N[C@@H](CC(=O)O)C(=O)NC(C)(C)C(=O)N[C@@H](CCCCN)C(=O)N[C@@H](CCCNC(=N)N)C(=O)N[C@@H](C)C(=O)N[C@@H](CCC(N)=O)C(=O)N[C@@H](CCC(=O)O)C(=O)N[C@@H](Cc1ccccc1)C(=O)N[C@H](C(=O)NC(C)(C)C(=O)N[C@@H](Cc1c[nH]c2ccccc12)C(=O)N[C@@H](CC(C)C)C(=O)N[C@@H](CCC(=O)O)C(=O)N[C@@H](CC(=O)O)C(=O)N[C@@H](CCC(=O)O)C(=O)N[C@@H](CCC(=O)O)C(=O)N[C@@H](CCC(=O)O)C(=O)N1CCC[C@H]1C(=O)N[C@@H](CO)C(=O)N[C@@H](CO)C(=O)NCC(=O)N[C@@H](C)C(=O)N1CCC[C@H]1C(=O)N1CCC[C@H]1C(=O)N1CCC[C@H]1C(=O)N[C@@H](CO)C(=O)O)C(C)C` [Compound A11] (H-YSHGTFTSDYSKYLD[Aib]KRAQEFV[Aib]WLEDEEEPSSGAPPPS-OH; N-terminus assumed): above 1000 pM and 6.31 pM.
On to `CC(C)C[C@H](NC(=O)[C@H](Cc1ccc(O)cc1)NC(=O)[C@H](CCCCN)NC(=O)[C@H](CO)NC(=O)[C@H](Cc1ccc(O)cc1)NC(=O)[C@H](CC(=O)O)NC(=O)[C@H](CO)NC(=O)[C@@H](NC(=O)[C@H](Cc1ccccc1)NC(=O)[C@@H](NC(=O)CNC(=O)[C@H](Cc1c[nH]cn1)NC(=O)[C@H](CO)NC(=O)[C@@H](N)Cc1ccc(O)cc1)[C@@H](C)O)[C@@H](C)O)C(=O)N[C@@H](CC(=O)O)C(=O)NC(C)(C)C(=O)N[C@@H](CCCCN)C(=O)N[C@@H](CCCNC(=N)N)C(=O)N[C@@H](C)C(=O)N[C@@H](CCC(N)=O)C(=O)N[C@@H](CCC(=O)O)C(=O)N[C@@H](Cc1ccccc1)C(=O)N[C@H](C(=O)NC(C)(C)C(=O)N[C@@H](Cc1c[nH]c2ccccc12)C(=O)N[C@@H](CC(C)C)C(=O)N[C@@H](CCC(=O)O)C(=O)N[C@@H](CC(=O)O)C(=O)N[C@@H](CCC(=O)O)C(=O)N[C@@H](CO)C(=O)N[C@@H](CO)C(=O)NCC(=O)N[C@@H](C)C(=O)N1CCC[C@H]1C(=O)N1CCC[C@H]1C(=O)N1CCC[C@H]1C(=O)N[C@@H](CO)C(=O)O)C(C)C` [Compound A14] (H-YSHGTFTSDYSKYLD[Aib]KRAQEFV[Aib]WLEDESSGAPPPS-OH; N-terminus assumed), for which the EC50 was above 1000 pM at human GLP-1R and 1 pM at human GCGR.
For the molecule `CC(C)C[C@H](NC(=O)[C@H](Cc1ccc(O)cc1)NC(=O)[C@H](CCCCN)NC(=O)[C@H](CO)NC(=O)[C@H](Cc1ccc(O)cc1)NC(=O)[C@H](CC(=O)O)NC(=O)[C@H](CO)NC(=O)[C@@H](NC(=O)[C@H](Cc1ccccc1)NC(=O)[C@@H](NC(=O)CNC(=O)[C@H](Cc1c[nH]cn1)NC(=O)[C@H](CO)NC(=O)[C@@H](N)Cc1ccc(O)cc1)[C@@H](C)O)[C@@H](C)O)C(=O)N[C@@H](CC(=O)O)C(=O)NC(C)(C)C(=O)N[C@@H](CO)C(=O)N[C@@H](CCCNC(=N)N)C(=O)N[C@@H](C)C(=O)N[C@@H](CCC(N)=O)C(=O)N[C@@H](CCC(=O)O)C(=O)N[C@@H](Cc1ccccc1)C(=O)N[C@H](C(=O)NC(C)(C)C(=O)N[C@@H](Cc1c[nH]c2ccccc12)C(=O)N[C@@H](CC(C)C)C(=O)N[C@@H](CCC(=O)O)C(=O)N[C@@H](CC(=O)O)C(=O)N[C@@H](CCC(=O)O)C(=O)N1CCC[C@H]1C(=O)N[C@@H](CO)C(=O)N[C@@H](CO)C(=O)NCC(=O)N[C@@H](C)C(=O)N1CCC[C@H]1C(=O)N1CCC[C@H]1C(=O)N1CCC[C@H]1C(=O)N[C@@H](CO)C(=O)O)C(C)C` [Compound A15] (H-YSHGTFTSDYSKYLD[Aib]SRAQEFV[Aib]WLEDEPSSGAPPPS-OH; N-terminus assumed), the EC50 at human GLP-1R is above 1000 pM; at human GCGR, 3.98 pM.
Consider `CC(C)C[C@H](NC(=O)[C@H](Cc1ccc(O)cc1)NC(=O)[C@H](CCCCN)NC(=O)[C@H](CO)NC(=O)[C@H](Cc1ccc(O)cc1)NC(=O)[C@H](CC(=O)O)NC(=O)[C@H](CO)NC(=O)[C@@H](NC(=O)[C@H](Cc1ccccc1)NC(=O)[C@@H](NC(=O)CNC(=O)[C@H](Cc1c[nH]cn1)NC(=O)[C@H](CO)NC(=O)[C@@H](N)Cc1ccc(O)cc1)[C@@H](C)O)[C@@H](C)O)C(=O)N[C@@H](CC(=O)O)C(=O)NC(C)(C)C(=O)N[C@H](C(=O)N[C@@H](CCCNC(=N)N)C(=O)N[C@@H](C)C(=O)N[C@@H](CCC(N)=O)C(=O)N[C@@H](CCC(=O)O)C(=O)N[C@@H](Cc1ccccc1)C(=O)N[C@H](C(=O)NC(C)(C)C(=O)N[C@@H](Cc1c[nH]c2ccccc12)C(=O)N[C@@H](CC(C)C)C(=O)N[C@@H](CCC(=O)O)C(=O)N[C@@H](CC(=O)O)C(=O)N[C@@H](CCC(=O)O)C(=O)N1CCC[C@H]1C(=O)N[C@@H](CO)C(=O)N[C@@H](CO)C(=O)NCC(=O)N[C@@H](C)C(=O)N1CCC[C@H]1C(=O)N1CCC[C@H]1C(=O)N1CCC[C@H]1C(=O)N[C@@H](CO)C(=O)O)C(C)C)[C@@H](C)O` [Compound A16] (H-YSHGTFTSDYSKYLD[Aib]TRAQEFV[Aib]WLEDEPSSGAPPPS-OH; N-terminus assumed), for which the 50% effective concentration (EC50) at human GLP-1R was above 1000 pM; on human GCGR, 1.26 pM.
